Where two headings read alike, the source gives them in different places.
What was measured:
CNS cancer cell lines = assay: NCI five-dose testing, subpanel mean; assay type: cell-based; settings: subpanel IV: CNS cancer
Protocol: (§1) Screening against the cancer cell lines was carried out at the National Cancer Institute (NCI, Bethesda, Maryland, USA) applying the standard protocol of the NCI[22].

Leukaemia cell lines = assay: NCI five-dose testing, subpanel mean; assay type: cell-based; settings: subpanel I: Leukaemia
Protocol: as §1

breast cancer cell lines = assay: NCI five-dose testing, subpanel mean; assay type: cell-based; settings: subpanel IX: breast cancer
Protocol: as §1

colon cancer cell lines = assay: NCI five-dose testing, subpanel mean; assay type: cell-based; settings: subpanel III: colon cancer
Protocol: as §1

melanoma cell lines = assay: NCI five-dose testing, subpanel mean; assay type: cell-based; settings: subpanel V: melanoma
Protocol: as §1

[1] = system: non-small cell lung cancer cell lines; assay: NCI five-dose testing, subpanel mean; assay type: cell-based; settings: subpanel II: non-small cell lung cancer
Protocol: as §1

[2] = system: ovarian cancer cell lines; assay: NCI five-dose testing, subpanel mean; assay type: cell-based; settings: subpanel VI: ovarian cancer
Protocol: as §1

[3] = system: prostate cancer cell lines; assay: NCI five-dose testing, subpanel mean; assay type: cell-based; settings: subpanel VIII: prostate cancer
Protocol: as §1

renal cancer cell lines = assay: NCI five-dose testing, subpanel mean; assay type: cell-based; settings: subpanel VII: renal cancer
Protocol: as §1

[4] = system: A498 renal cancer cell line; assay: NCI five-dose testing; assay type: cell-based; settings: for IC (TGI): read-out: TGI (total growth inhibition concentration)
Protocol: as §1

[5] = system: HOP-92 non-small cell lung cancer cell line; assay: NCI five-dose testing; assay type: cell-based; settings: for IC (TGI): read-out: TGI (total growth inhibition concentration)
Protocol: as §1

[6] = system: HT-29 colon cancer cell line; assay: NCI five-dose testing; assay type: cell-based; settings: for IC50: read-out: IC50; for IC (TGI): read-out: TGI (total growth inhibition concentration)
Protocol: as §1

[7] = system: K-562 leukaemia cell line; assay: NCI five-dose testing; assay type: cell-based; settings: for IC (TGI): read-out: TGI (total growth inhibition concentration)
Protocol: as §1

[8] = system: MDA-MB-468 breast cancer cell line; assay: NCI five-dose testing; assay type: cell-based; settings: for IC (TGI): read-out: TGI (total growth inhibition concentration)
Protocol: as §1

[9] = system: OVCAR-4 ovarian cancer cell line; assay: NCI five-dose testing; assay type: cell-based; settings: for IC (TGI): read-out: TGI (total growth inhibition concentration)
Protocol: as §1

[10] = system: PC-3 prostate cancer cell line; assay: NCI five-dose testing; assay type: cell-based; settings: for IC50: read-out: IC50; for IC (TGI): read-out: TGI (total growth inhibition concentration)
Protocol: as §1

[11] = system: SK-MEL-5 melanoma cell line; assay: NCI five-dose testing; assay type: cell-based; settings: for IC (TGI): read-out: TGI (total growth inhibition concentration)
Protocol: as §1

[12] = system: U251 CNS cancer cell line; assay: NCI five-dose testing; assay type: cell-based; settings: for IC50: read-out: IC50; for IC (TGI): read-out: TGI (total growth inhibition concentration)
Protocol: as §1

ABL1 (T315I) = molecular target: T1, ABL1 (T315I) (Homo sapiens, UniProt P00519, T315I); assay: In vitro kinase screening (Kinase HotSpot); assay type: biochemical; settings: single dose of 10 µM
T1 construct: purchased Reaction Biology Corp
Description: (§2) To investigate the biological target of compound, Reaction Biology Corp. Kinase HotSpotSM service was used adopting standard assay protocol.

BRAF = molecular target: T2, BRAF (Homo sapiens, UniProt P15056); assay: In vitro kinase screening (Kinase HotSpot); assay type: biochemical; settings: single dose of 10 µM
T2 construct: purchased Reaction Biology Corp
T2 sequence (P15056 whole entry): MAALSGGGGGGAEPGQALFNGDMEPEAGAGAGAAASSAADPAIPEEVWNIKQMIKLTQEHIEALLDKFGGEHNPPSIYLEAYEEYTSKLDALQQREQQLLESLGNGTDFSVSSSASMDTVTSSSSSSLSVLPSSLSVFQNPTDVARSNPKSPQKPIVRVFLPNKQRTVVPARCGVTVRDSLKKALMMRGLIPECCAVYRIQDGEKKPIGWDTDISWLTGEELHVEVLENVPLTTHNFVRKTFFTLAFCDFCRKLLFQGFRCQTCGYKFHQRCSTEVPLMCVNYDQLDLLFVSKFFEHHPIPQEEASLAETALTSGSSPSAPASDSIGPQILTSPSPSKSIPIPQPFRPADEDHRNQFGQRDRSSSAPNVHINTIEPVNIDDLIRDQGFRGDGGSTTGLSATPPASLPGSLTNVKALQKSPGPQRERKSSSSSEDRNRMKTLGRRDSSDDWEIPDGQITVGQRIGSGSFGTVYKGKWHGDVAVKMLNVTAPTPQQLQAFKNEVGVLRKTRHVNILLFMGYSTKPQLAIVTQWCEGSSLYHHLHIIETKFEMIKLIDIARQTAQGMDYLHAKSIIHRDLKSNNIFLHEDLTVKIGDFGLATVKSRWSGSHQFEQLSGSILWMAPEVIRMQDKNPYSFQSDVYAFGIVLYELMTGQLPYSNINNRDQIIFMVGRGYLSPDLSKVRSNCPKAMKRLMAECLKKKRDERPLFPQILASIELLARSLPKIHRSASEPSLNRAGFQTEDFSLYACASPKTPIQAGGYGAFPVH
Description: as §2

BRAF (V600E) = molecular target: T3, BRAF (V600E) (Homo sapiens, UniProt P15056, V600E); assay: In vitro kinase screening (Kinase HotSpot); assay type: biochemical; settings: single dose of 10 µM, BRAF (V599E) in Table 6, BRAF (V600E) in text
T3 construct: purchased Reaction Biology Corp
T3 sequence (P15056 whole entry V600E): as the sequence (P15056 whole entry) above, with V600E counted along it
Description: as §2

CDK2/cyclin E = molecular target: T4, CDK2/cyclin E (Homo sapiens, UniProt P24941); assay: In vitro kinase screening (Kinase HotSpot); assay type: biochemical; settings: single dose of 10 µM
T4 construct: purchased Reaction Biology Corp
Description: as §2

EGFR = molecular target: T5, EGFR (Homo sapiens, UniProt P00533); assay: In vitro kinase screening (Kinase HotSpot); assay type: biochemical; settings: single dose of 10 µM
T5 construct: purchased Reaction Biology Corp
T5 sequence (P00533 25-1210): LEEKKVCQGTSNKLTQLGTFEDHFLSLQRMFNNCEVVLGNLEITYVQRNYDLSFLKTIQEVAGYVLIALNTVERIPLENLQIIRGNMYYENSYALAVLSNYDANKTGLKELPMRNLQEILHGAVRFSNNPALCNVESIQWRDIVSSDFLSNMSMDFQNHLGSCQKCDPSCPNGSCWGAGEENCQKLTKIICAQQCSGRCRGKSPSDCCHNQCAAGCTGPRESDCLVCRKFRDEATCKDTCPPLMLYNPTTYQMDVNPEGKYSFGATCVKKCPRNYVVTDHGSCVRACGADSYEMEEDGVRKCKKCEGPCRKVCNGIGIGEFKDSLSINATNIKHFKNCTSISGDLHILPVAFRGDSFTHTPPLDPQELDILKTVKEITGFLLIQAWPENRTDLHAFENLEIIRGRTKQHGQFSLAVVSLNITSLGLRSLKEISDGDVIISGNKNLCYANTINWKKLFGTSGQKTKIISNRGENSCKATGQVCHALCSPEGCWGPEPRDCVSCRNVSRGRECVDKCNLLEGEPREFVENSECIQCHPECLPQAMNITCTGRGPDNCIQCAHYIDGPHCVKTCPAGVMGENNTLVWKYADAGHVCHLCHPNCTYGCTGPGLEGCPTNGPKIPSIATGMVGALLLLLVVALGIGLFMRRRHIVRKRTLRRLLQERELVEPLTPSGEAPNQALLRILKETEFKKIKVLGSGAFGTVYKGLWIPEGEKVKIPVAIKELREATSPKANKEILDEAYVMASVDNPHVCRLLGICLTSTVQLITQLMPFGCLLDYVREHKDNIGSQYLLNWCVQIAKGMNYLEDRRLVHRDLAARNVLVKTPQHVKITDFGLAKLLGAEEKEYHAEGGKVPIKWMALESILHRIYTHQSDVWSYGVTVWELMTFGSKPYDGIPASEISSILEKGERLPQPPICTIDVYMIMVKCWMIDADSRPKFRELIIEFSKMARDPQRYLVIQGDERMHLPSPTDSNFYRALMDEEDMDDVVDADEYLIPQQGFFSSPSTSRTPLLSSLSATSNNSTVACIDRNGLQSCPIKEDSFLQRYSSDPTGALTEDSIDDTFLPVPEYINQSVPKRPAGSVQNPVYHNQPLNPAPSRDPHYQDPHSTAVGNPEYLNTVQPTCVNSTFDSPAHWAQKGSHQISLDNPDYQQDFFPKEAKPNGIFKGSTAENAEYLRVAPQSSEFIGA
Description: as §2

GSK3b = molecular target: T6, GSK3b (Homo sapiens, UniProt P49841); assay: In vitro kinase screening (Kinase HotSpot); assay type: biochemical; settings: single dose of 10 µM
T6 construct: purchased Reaction Biology Corp
T6 sequence (P49841 whole entry): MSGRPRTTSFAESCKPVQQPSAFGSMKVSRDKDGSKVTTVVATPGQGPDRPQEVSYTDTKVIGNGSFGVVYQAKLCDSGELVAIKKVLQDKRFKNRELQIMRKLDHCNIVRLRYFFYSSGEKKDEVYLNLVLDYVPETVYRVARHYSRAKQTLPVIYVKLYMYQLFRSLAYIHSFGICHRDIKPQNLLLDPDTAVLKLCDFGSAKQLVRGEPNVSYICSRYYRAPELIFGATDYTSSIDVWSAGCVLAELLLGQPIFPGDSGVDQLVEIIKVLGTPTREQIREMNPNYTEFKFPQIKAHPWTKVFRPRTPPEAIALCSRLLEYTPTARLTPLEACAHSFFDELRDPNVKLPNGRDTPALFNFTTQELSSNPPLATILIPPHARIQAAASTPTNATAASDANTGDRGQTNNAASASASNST
Description: as §2

IKKb/IKBKB = molecular target: T7, IKKb/IKBKB (Homo sapiens, UniProt O14920); assay: In vitro kinase screening (Kinase HotSpot); assay type: biochemical; settings: single dose of 10 µM
T7 construct: purchased Reaction Biology Corp
T7 sequence (O14920 1-756): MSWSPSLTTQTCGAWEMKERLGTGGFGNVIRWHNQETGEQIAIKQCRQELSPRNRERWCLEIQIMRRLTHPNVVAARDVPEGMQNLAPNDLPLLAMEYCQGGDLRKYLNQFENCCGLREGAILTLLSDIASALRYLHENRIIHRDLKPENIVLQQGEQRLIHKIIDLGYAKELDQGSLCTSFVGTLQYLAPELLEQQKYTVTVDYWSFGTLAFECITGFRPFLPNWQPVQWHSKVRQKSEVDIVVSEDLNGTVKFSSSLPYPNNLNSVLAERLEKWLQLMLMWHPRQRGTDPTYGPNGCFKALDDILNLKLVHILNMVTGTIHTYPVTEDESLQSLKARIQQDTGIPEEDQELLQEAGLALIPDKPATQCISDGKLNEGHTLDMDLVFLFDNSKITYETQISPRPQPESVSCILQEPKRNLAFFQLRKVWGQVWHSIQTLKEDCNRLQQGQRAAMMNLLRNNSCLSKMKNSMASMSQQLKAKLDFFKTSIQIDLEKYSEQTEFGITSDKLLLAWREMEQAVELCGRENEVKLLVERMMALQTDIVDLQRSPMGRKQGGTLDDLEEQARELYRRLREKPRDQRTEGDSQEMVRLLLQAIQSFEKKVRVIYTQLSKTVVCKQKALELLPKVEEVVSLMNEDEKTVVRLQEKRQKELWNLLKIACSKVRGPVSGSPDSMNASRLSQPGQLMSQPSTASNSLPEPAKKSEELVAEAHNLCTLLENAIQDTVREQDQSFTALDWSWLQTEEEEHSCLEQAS
Description: as §2

JNK1 = molecular target: T8, JNK1 (Homo sapiens, UniProt P45983); assay: In vitro kinase screening (Kinase HotSpot); assay type: biochemical; settings: single dose of 10 µM
T8 construct: purchased Reaction Biology Corp
T8 sequence (P45983 whole entry): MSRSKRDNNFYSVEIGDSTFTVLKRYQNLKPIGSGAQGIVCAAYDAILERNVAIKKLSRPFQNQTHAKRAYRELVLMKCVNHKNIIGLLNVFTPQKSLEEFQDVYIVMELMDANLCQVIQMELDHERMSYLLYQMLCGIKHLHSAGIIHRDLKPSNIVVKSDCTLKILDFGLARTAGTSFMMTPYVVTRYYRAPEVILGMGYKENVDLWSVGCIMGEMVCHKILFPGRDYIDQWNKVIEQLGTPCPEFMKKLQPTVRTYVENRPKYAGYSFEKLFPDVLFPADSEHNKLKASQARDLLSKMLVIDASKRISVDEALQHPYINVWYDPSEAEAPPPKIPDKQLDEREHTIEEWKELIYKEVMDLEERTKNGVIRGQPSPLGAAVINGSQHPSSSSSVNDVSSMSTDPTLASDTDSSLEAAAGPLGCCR
Description: as §2

JNK2 = molecular target: T9, JNK2 (Homo sapiens, UniProt P45984); assay: In vitro kinase screening (Kinase HotSpot); assay type: biochemical; settings: single dose of 10 µM
T9 construct: purchased Reaction Biology Corp
T9 sequence (P45984 whole entry): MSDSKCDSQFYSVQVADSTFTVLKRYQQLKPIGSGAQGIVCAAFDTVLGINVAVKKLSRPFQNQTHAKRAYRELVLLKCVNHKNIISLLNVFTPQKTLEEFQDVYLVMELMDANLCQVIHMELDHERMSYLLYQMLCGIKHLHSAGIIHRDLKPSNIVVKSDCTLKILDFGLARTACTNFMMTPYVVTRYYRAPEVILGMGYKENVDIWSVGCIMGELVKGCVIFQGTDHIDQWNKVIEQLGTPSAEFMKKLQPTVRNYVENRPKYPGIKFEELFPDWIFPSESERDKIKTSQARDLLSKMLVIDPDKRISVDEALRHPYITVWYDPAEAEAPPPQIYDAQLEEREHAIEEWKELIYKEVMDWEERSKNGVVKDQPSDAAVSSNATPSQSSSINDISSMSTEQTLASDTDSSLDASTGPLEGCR
Description: as §2

JNK3 = molecular target: T10, JNK3 (Homo sapiens, UniProt P53779); assay: In vitro kinase screening (Kinase HotSpot); assay type: biochemical; settings: single dose of 10 µM
T10 construct: purchased Reaction Biology Corp
T10 sequence (P53779 whole entry): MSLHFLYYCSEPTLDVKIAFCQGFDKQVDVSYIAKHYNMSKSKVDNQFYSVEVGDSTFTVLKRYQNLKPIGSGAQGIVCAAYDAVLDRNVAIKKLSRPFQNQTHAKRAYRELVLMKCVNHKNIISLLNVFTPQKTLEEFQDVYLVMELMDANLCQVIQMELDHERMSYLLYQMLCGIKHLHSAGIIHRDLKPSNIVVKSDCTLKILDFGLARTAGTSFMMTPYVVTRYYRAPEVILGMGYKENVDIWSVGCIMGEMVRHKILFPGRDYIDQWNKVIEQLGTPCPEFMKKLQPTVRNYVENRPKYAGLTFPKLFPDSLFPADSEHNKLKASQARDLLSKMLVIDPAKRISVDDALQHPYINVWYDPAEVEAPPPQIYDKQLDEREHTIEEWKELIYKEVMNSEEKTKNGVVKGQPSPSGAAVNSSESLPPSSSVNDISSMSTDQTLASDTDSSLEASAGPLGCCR
Description: as §2

P38a/MAPK14 = molecular target: T11, P38a/MAPK14 (Homo sapiens, UniProt Q16539); assay: In vitro kinase screening (Kinase HotSpot); assay type: biochemical; settings: single dose of 10 µM, P38a/MAPK14
T11 construct: purchased Reaction Biology Corp
T11 sequence (Q16539 whole entry): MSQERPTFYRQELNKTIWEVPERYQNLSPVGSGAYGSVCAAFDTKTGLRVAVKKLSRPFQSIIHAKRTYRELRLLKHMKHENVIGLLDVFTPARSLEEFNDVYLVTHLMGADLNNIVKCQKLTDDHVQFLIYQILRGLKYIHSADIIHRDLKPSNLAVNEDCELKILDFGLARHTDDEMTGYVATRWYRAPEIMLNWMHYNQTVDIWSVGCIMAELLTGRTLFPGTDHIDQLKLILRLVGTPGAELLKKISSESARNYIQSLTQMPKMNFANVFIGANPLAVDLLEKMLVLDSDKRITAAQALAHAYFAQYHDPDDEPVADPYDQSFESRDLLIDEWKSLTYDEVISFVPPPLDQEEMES
Description: as §2

NCI-60 cell line panel = assay: NCI-60 single-dose (10 µM) antiproliferative screening, mean over panel; assay type: cell-based; settings: single-dose 10 µM, 60-cancer cell line screening
Protocol: as §1
The final target compounds were submitted to the National Cancer Institute (NCI), Maryland, USA[23]. Thirty-one compounds were selected to be tested over 60 cell lines at single dose 10 µM.

O=S(=O)(NCCNc1cc(-c2cn(-c3ccccc3)nc2-c2cccc(O)c2)ccn1)c1ccc(Cl)cc1 [Compound 1l, 4-Chloro-N-(2-((4-(3-(3-hydroxyphenyl)-1-phenyl-1H-pyrazol-4-yl)pyridin-2-yl)amino)ethyl) benzenesulfonamide]
IC50 (CNS cancer cell lines): 2.85 µM | IC50 (Leukaemia cell lines): 2.44 µM | IC50 (breast cancer cell lines): 2.48 µM | IC50 (colon cancer cell lines): 2.46 µM | IC50 (melanoma cell lines): 2.38 µM | IC50 [1]: 3.16 µM | IC50 [2]: 3.29 µM | IC50 [3]: 3.03 µM | IC50 (renal cancer cell lines): 3.18 µM | IC50 ([4]; A498): 2.63 µM | LD50 (lethal dose 50) ([4]; A498): 57.1 µM | IC (TGI) ([4]; A498): 9.5 µM | IC50 ([5]; HOP-92): 2.34 µM | LD50 (lethal dose 50) ([5]; HOP-92): 70.5 µM | IC (TGI) ([5]; HOP-92): 8.3 µM | LD50 (lethal dose 50) ([6]; HT-29): 61.8 µM | IC50 ([6]; HT-29): 2.24 µM | IC (TGI) ([6]; HT-29): 5.2 µM | IC50 ([7]; K-562): 1.98 µM | LD50 (lethal dose 50) ([7]; K-562): >100 µM | IC (TGI) ([7]; K-562): 5.4 µM | IC50 ([8]; MDA-MB-468): 2.78 µM | LD50 (lethal dose 50) ([8]; MDA-MB-468): >100 µM | IC (TGI) ([8]; MDA-MB-468): 7.66 µM | IC50 ([9]; OVCAR-4): 4.37 µM | LD50 (lethal dose 50) ([9]; OVCAR-4): >100 µM | IC (TGI) ([9]; OVCAR-4): >100 µM | LD50 (lethal dose 50) ([10]; PC-3): >100 µM | IC50 ([10]; PC-3): 2.45 µM | IC (TGI) ([10]; PC-3): 12.0 µM | IC50 ([11]; SK-MEL-5): 2.02 µM | LD50 (lethal dose 50) ([11]; SK-MEL-5): 7.9 µM | IC (TGI) ([11]; SK-MEL-5): 4.0 µM | LD50 (lethal dose 50) ([12]; U251): 45.9 µM | IC50 ([12]; U251): 3.21 µM | IC (TGI) ([12]; U251): 11.4 µM | Inhibition % (ABL1 (T315I)): 6.39 ± 0.35% | Inhibition % (BRAF): 21.28 ± 0.21% | Inhibition % (BRAF (V600E)): 48.09 ± 0.45% | Inhibition % (CDK2/cyclin E): 8.36 ± 0.95% | Inhibition % (EGFR): 10.33 ± 3.40% | Inhibition % (GSK3b): 15.88 ± 0.21% | Inhibition % (IKKb/IKBKB): 7.80 ± 0.10% | Inhibition % (JNK1): 53.79 ± 0.04% | Inhibition % (JNK2): 44.68 ± 0.01% | Inhibition % (JNK3): 35.70 ± 0.04% | Inhibition % (P38a/MAPK14): 68.43 ± 0.59%

COc1cccc(-c2nn(-c3ccccc3)cc2-c2ccnc(NCCCNS(=O)(=O)c3cccc(F)c3)c2)c1 [Compound 2h, 3-Fluoro-N-(3-((4-(3-(3-methoxyphenyl)-1-phenyl-1H-pyrazol-4-yl)pyridin-2-yl)amino)propyl)benzenesulfonamide]
inhibition at 10 µM (NCI-60 cell line panel): 76.8% | IC50 (CNS cancer cell lines): 4.49 µM | IC50 (Leukaemia cell lines): 3.18 µM | IC50 (breast cancer cell lines): 3.49 µM | IC50 (colon cancer cell lines): 4.69 µM | IC50 (melanoma cell lines): 4.14 µM | IC50 [1]: 5.01 µM | IC50 [2]: 3.88 µM | IC50 [3]: 4.65 µM | IC50 (renal cancer cell lines): 4.25 µM | IC50 ([4]; Homo sapiens, A498): 3.52 µM | LC50 (lethal concentration 50%) ([4]; Homo sapiens, A498, read-out: LD50 (lethal dose 50)): > 100 µM | IC (TGI) ([4]; Homo sapiens, A498): > 100 µM | IC50 ([5]; Homo sapiens, HOP-92): 2.42 µM | IC (TGI) ([5]; Homo sapiens, HOP-92, HOP-92): > 100 µM | LD50 (lethal dose 50) ([5]; Homo sapiens, HOP-92, read-out: LD50 (lethal dose 50)): > 100 µM | CC50 ([6]; Homo sapiens, HT-29, read-out: LD50 (lethal dose 50)): > 100 µM | IC50 ([6]; Homo sapiens, HT-29): 2.87 µM | IC (TGI) ([6]; Homo sapiens, HT-29): 18.8 µM | CC50 ([7]; Homo sapiens, K562, read-out: LD50 (lethal dose 50)): > 100 µM | IC50 ([7]; Homo sapiens, K562, K-562): 3.31 µM | IC (TGI) ([7]; Homo sapiens, K562, K-562): > 100 µM | IC50 ([8]; Homo sapiens, MDA-MB-468): 3.49 µM | CC50 ([8]; Homo sapiens, MDA-MB-468, read-out: LD50 (lethal dose 50)): > 100 µM | IC (TGI) ([8]; Homo sapiens, MDA-MB-468): 30.4 µM | IC50 ([9]; Homo sapiens, OVCAR-4): 3.28 µM | LC50 (lethal concentration 50) ([9]; Homo sapiens, OVCAR-4, read-out: LD50 (lethal dose 50)): > 100 µM | IC (TGI) ([9]; Homo sapiens, OVCAR-4): > 100 µM | LC50 (lethal concentration 50) ([10]; Homo sapiens, PC-3, read-out: LD50 (lethal dose 50)): > 100 µM | IC50 ([10]; Homo sapiens, PC-3): 2.97 µM | IC (TGI) ([10]; Homo sapiens, PC-3): > 100 µM | IC50 ([11]; Homo sapiens, SK-MEL-5): 1.86 µM | LC50 (lethal concentration 50) ([11]; Homo sapiens, SK-MEL-5, read-out: LD50 (lethal dose 50)): 7.6 µM | IC (TGI) ([11]; Homo sapiens, SK-MEL-5): 3.7 µM | CC50 ([12]; Homo sapiens, U-251, read-out: LD50 (lethal dose 50)): > 100 µM | IC50 ([12]; Homo sapiens, U-251, U251): 4.83 µM | IC (TGI) ([12]; Homo sapiens, U-251, U251): > 100 µM
